Test results as given in paper PMC545074, “The two neutrophil members of the formylpeptide receptor family activate the NADPH-oxidase through signals that differ in sensitivity to a gelsolin derived phosphoinositide-binding peptide” (BMC Cell Biology, 2004).
Read-outs that look alike come from different tables or passages of the source. Each block holds one molecule with its values, some of them ahead of it. Where a SMILES comes first, the peptide text is derived from it. Where no end group is shown, it is not given here. The star is where a group is joined. RhodamineB = CCN(CC)c1ccc2c(-c3ccccc3C(=O)*)c3ccc(=[N+](CC)CC)cc-3oc2c1

Columns and labels:
FPR [1] = tested on: FPR; set-up: method as in PMID 15147563; conditions: cited from earlier work
FPRL1 [2] = molecular target: T1, FPRL1 (Homo sapiens, UniProt P25090); test: Cytosolic calcium mobilization in neutrophils (Fura-2 fluorescence), FPRL1 agonist WKYMVM; format: cell-based
T1 construct: Neutrophil granulocytes were isolated from buffy coats obtained from healthy adults; endogenous in cells; host or cells: human neutrophil granulocytes from buffy coats of healthy adults
T1 sequence (P25090 1-351): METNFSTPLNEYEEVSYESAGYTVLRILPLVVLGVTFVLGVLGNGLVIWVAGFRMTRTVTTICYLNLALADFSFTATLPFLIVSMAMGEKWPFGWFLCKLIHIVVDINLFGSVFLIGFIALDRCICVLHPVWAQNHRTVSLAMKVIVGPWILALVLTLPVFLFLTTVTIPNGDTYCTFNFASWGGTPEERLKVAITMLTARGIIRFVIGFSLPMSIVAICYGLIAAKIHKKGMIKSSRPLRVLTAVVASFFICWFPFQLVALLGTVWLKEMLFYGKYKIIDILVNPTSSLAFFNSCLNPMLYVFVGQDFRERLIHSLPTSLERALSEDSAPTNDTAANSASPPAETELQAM
Method: (§1) Neutrophil granulocytes were isolated from buffy coats obtained from healthy adults. After dextran sedimentation at 1 × g, hypotonic lysis of the remaining erythrocytes, and centrifugation in a Ficoll-Paque gradient, the neutrophils were washed twice and resuspended (1 × 10^7 /ml) in Krebs-Ringer phosphate buffer containing glucose (10 mM), Ca^2+ (1 mM), and Mg^2+ (1.5 mM) (KRG; pH 7.3). The cells were stored on melting ice and used within 120 min of preparation.
(§2) Neutrophils at a density of 2 × 10^7/ml in Ca^2+-free KRG supplemented with bovine serum albumin (BSA, 0.1%) were incubated with the acetoxymethylated derivative fura-2/AM (2 μM) at room temperature for 30 minutes. The cells were washed twice and resuspended in KRG, adjusted to 2 × 10^7/ml and kept protected from light on ice until use. Cells with or without PBP10 were equilibrated for 5 minutes at 37°C, after which the peptide agonist was added. The fura-2 fluorescence was followed with a luminescence spectrometer (LS50B; Perkin Elmer Corp.) using excitation wavelengths of 340 nm and 380 nm, and an emission wavelength of 510 nm and the [Ca^2+]i was calculated as described earlier.

FPRL1 [3] = molecular target: T1, FPRL1; set-up: method as in PMID 15147563; conditions: cited from earlier work
FPR [4] = test: Cytosolic calcium mobilization in neutrophils (Fura-2 fluorescence), FPR agonist fMLF; format: cell-based, human
Method: as §1, §2

FPR [5] = test: Neutrophil NADPH-oxidase activity (superoxide anion release, isoluminol-enhanced chemiluminescence) induced through FPR; format: cell-based, human; conditions: for Effect on fMLF induced NADPH-oxidase activity (superoxide production): FPR stimulated by fMLF, concentration of test substance not given, data not shown
Method: as §1
(§3) Neutrophil production and release of superoxide anions was measured by means of an isoluminol-enhanced chemiluminescence (CL) assay. The CL activity was measured in a six-channel Biolumat LB 9505 apparatus (Berthold Co., Wildbad, Germany), using disposable 4-ml polypropylene tubes with a 900-μl reaction mixture containing 10^5–10^6 neutrophils, horseradish peroxidase (4 U) and isoluminol (20 μM) with and without cytochalasin B or PBP10. The measuring tubes were equilibrated for 5 to 10 minutes at 37°C and the cells were activated by addition of a receptor specific peptide agonist, fMLF for FPR and WKYMVM for FPRL1. The light emission was recorded continuously. Details about the CL technique are given in [45].

FPRL1 [6] = molecular target: T1, FPRL1; test: Neutrophil NADPH-oxidase activity (superoxide anion release, isoluminol-enhanced chemiluminescence) induced through FPRL1; format: cell-based; conditions: for Effect on WKYMVM induced NADPH-oxidase activity (superoxide production): FPRL1 stimulated by WKYMVM, concentration of test substance not given, antagonists and rhodamine: data not shown
Method: as §1, §3

[7] = tested on: plasma membrane of neutrophils and other cells; conditions: cited from earlier work
[8] = set-up: method as in earlier work; conditions: cited from earlier work
PKC = test: Neutrophil NADPH-oxidase activity induced by the receptor independent PKC activator PMA; format: cell-based, human; conditions: neutrophils incubated 120 minutes with PTX 500 ng/ml, then PMA 100 nM
FPRL1 [9] = molecular target: T1, FPRL1; test: Mobilization of CR3 to the neutrophil cell surface (FACS), WKYMVM induced; format: cell-based; conditions: PBP10 1 μM at 37°C for 5 minutes, then WKYMVM 100 nM for 10 minutes, four independent experiments
Method: as §1
(§4) The exposure of CR3 (CD11b/CD18) on the neutrophil cell surface was assessed by immunostaining and FACS-analysis. Cells challenged with peptide agonists with or without PBP10 were fixed with ice-cold paraformaldehyde and washed with FACSwash (PBS, 0.02% NaN3), after which the cells were incubated at 4°C with phycoerythrin-conjugated anti-CR3 antibodies (CD11b; Becton Dickinson 10 μl/10^6 cells) before analysis using a FACScan (Becton Dickinson, Mountain View, CA).

FPR [10] = test: Mobilization of CR3 to the neutrophil cell surface (FACS), fMLF induced; format: cell-based, human; conditions: PBP10 1 μM at 37°C for 5 minutes, then fMLF 100 nM for 10 minutes, four independent experiments
Method: as §1, §4

[11] = human neutrophils, 100 nM, Fura-2

Molecule: C=C1[C@@H](C)[C@H]2[C@H](Cc3ccccc3)NC(=O)[C@]23OC(=O)/C=C/[C@H](O)CCC[C@@H](C)C/C=C/[C@H]3[C@@H]1O [cytochalasin B]
Effect of cytochalasin B on the neutrophil response to FPR agonists (FPR [1]): augmented and prolonged | Effect of cytochalasin B on the transient rise in intracellular calcium induced by active FPRL1 (FPRL1 [2]; data not shown): not affected | Effect of cytochalasin B on the neutrophil response to FPRL1 agonists (FPRL1 [3]): augmented and prolonged | Effect of cytochalasin B on the transient rise in intracellular calcium induced by active FPR (FPR [4]; data not shown): not affected

Molecule: COC[C@H]1OC(=O)c2coc3c2[C@@]1(C)C1=C(C3=O)[C@@H]2CCC(=O)[C@@]2(C)C[C@H]1OC(C)=O [Wortmannin]
Effect of the PI3K inhibitor on oxidase activity induced by fMLF (FPR [5]; neutrophils incubated with different concentrations at 37°C for 30 minutes, then fMLF 100 nM, representative experiment): largely inhibited | Effect of the PI3K inhibitor on oxidase activity induced by WKYMVM (FPRL1 [6]; neutrophils incubated with different concentrations at 37°C for 30 minutes, then WKYMVM 100 nM, representative experiment): largely inhibited

Molecule: cyclosporine H
Effect on fMLF induced NADPH-oxidase activity (superoxide production) (FPR [5]; human neutrophils): totally inhibited | Effect on WKYMVM induced NADPH-oxidase activity (superoxide production) (FPRL1 [6]; human neutrophils): without effect

Agonist-induced change in cytosolic calcium through FPRL1 (FPRL1 [2]; [11]): rapid and transient increase | Agonist-induced oxidative burst (release of superoxide anions) through FPRL1 (FPRL1 [6]; human neutrophils, 100 nM and 20 nM shown in Fig 1A): robust oxidative burst
Molecule: Trp-Lys-Tyr-Met-Val-Met-NH2 [WKYMVM, FPRL1 specific hexapeptide agonist]

Effect of the unconjugated peptide on the WKYMVM induced neutrophil oxidase activity (FPRL1 [6]; 1 μM final concentration, 37°C for 5 minutes, then WKYMVM 100 nM): no effect
Molecule: QRLFQVKGRR
Membrane permeability (ability to cross the plasma membrane) [7]: lacks the ability to cross the plasma membrane | PIP2 binding [8]: same PIP2-binding characteristics as PBP10

Effect on WKYMVM induced NADPH-oxidase activity (superoxide production) (FPRL1 [6]; human neutrophils): totally inhibited
Molecule: WRWWWW [FPRL1 specific antagonist]
Effect on fMLF induced NADPH-oxidase activity (superoxide production) (FPR [5]; human neutrophils): not affected

Molecule: pertussis toxin
Effect of pertussis toxin on the FPR mediated oxidase response (FPR [5]; neutrophils incubated 120 minutes with PTX 500 ng/ml, then fMLF 100 nM): inhibited | Effect of pertussis toxin on oxidase activity induced by PMA (PKC): no reduction | Effect of pertussis toxin on the FPRL1 mediated oxidase response (FPRL1 [6]; neutrophils incubated 120 minutes with PTX 500 ng/ml, then WKYMVM 100 nM): inhibited

Molecule: N-formyl-Met-Leu-Phe [fMLF, prototype FPR agonist]
Agonist-induced oxidative burst (release of superoxide anions) through FPR (FPR [5]): robust oxidative burst | Agonist-induced change in cytosolic calcium through FPR (FPR [4]; [11]): rapid and transient increase

Molecule: CCN(CC)c1ccc2c(-c3ccccc3C(=O)N[C@@H](CCC(N)=O)C(=O)N[C@@H](CCCNC(=N)N)C(=O)N[C@@H](CC(C)C)C(=O)N[C@@H](Cc3ccccc3)C(=O)N[C@@H](CCC(N)=O)C(=O)N[C@H](C(=O)N[C@@H](CCCCN)C(=O)NCC(=O)N[C@@H](CCCNC(=N)N)C(=O)N[C@@H](CCCNC(=N)N)C(=O)O)C(C)C)c3ccc(=[N+](CC)CC)cc-3oc2c1 [PBP10, rhodamine-B-QRLFQVKGRR] (RhodamineB-QRLFQVKGRR-OH; C-terminus assumed)
Effect on the FPR-mediated NADPH-oxidase response in the presence of cytochalasin B (FPR [5]; cytochalasin B 2.5 μg/ml, fMLF 100 nM, PBP10 5 μM (higher concentrations required)): only partly inhibited | Effect on the fMLF induced NADPH-oxidase activity (FPR [5]; human neutrophils, PBP10 at concentrations up to 10 μM prior to activation with fMLF, isoluminol chemiluminescence): no effect | Effect on WKYMVM induced secretory response (mobilization of CR3 to the cell surface) (FPRL1 [9]): blocked | Effect on the calcium response induced by WKYMVM (FPRL1 [2]; PBP10 1 μM, 5 minutes at 37°C prior to WKYMVM 100 nM, Fura-2, representative experiment): did not alter | IC50 (FPRL1 [6]): 50 nM | Effect on NADPH-oxidase activity induced by WKYMVM in the presence of cytochalasin B (FPRL1 [6]; cytochalasin B 2.5 μg/ml, WKYMVM 100 nM): largely inhibited | Effect on WKYMVM induced NADPH-oxidase activity (superoxide production) (FPRL1 [6]; human neutrophils): totally inhibited | Effect on the calcium response induced by fMLF (FPR [4]; PBP10 1 μM, 5 minutes at 37°C prior to fMLF 100 nM, Fura-2, representative experiment): did not alter | Effect on FPR induced granule mobilization (CR3 exposure) (FPR [10]): without effect | Membrane permeability (ability to cross the plasma membrane) ([7]; neutrophils and other cells): membrane permeable | PIP2 binding [8]: PIP2 binding capacity

IC50 (FPRL1 [6]; human neutrophils treated with the peptide prior to activation with WKYMVM, superoxide release by isoluminol chemiluminescence, 37°C, Fig 1D three independent experiments, read-out: IC50 value for the WKYMVM induced NADPH-oxidase response): 1000 nM
Molecule: Rh-VKGRRG (RhodamineB-VKGRRG) [truncated rhodamine labeled peptide]
